Measurements taken from publication PMC10319141, “Imidazoquinolines with improved pharmacokinetic properties induce a high IFNα to TNFα ratio in vitro and in vivo” (Frontiers in Immunology, 2023).

How the values were obtained:
human TLR8 = molecular target: T1, human TLR8 (Homo sapiens, UniProt Q9NR97); assay: HEK-Blue hTLR8 SEAP reporter assay; assay type: cell-based; details: for TLR8 activity rel. to assay max: average maximal SEAP secretion relative to maximum secretion observed in the assay; for SEAP secretion from HEK-Blue hTLR-8: in words
T1 construct: host or cells: HEK blue hTLR8 reporter cells
T1 sequence (Q9NR97 27-1041): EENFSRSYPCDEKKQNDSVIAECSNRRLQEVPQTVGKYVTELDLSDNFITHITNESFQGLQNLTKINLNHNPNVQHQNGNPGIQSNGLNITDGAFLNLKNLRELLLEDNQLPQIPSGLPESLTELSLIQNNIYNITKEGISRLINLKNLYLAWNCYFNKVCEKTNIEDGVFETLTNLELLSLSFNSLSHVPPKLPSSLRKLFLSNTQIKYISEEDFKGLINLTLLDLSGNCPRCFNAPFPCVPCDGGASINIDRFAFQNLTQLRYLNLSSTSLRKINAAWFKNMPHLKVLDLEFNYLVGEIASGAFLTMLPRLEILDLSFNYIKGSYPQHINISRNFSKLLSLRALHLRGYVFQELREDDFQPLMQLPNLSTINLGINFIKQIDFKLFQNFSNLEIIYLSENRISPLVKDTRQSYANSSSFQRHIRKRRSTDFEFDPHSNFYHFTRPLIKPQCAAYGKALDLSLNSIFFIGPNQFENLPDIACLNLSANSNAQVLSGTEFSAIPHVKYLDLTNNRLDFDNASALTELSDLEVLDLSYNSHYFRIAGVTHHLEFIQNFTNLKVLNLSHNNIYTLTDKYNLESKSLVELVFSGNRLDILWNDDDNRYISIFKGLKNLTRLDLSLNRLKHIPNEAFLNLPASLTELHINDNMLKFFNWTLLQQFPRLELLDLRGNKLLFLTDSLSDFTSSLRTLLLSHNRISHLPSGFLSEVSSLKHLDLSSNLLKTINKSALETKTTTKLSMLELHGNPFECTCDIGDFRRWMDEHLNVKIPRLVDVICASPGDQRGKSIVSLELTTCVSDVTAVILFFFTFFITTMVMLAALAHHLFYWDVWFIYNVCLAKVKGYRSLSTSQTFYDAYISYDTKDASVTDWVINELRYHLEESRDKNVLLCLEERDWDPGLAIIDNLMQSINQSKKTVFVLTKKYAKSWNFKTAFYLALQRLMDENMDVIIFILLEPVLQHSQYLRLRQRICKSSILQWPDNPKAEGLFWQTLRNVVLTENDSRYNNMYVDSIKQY
Protocol: HEK blue hTLR7 or hTLR8 reporter cells (Invivogen) were cultivated in DMEM High Glucose (Biowest) according to the manufacturer’s instructions. Cells were treated with test compounds and controls at various concentrations in serum-free DMEM and incubated at 37°C, 5% CO2 for 24 h before supernatants were collected.
Relative secreted embryonic alkaline phosphatase (SEAP) activity in the supernatants was determined by quantification of para-Nitrophenyl Phosphate (pNPP)-turnover. Supernatants were diluted 10-fold in a solution containing 1 mM MgCl2, 1 M diethanolamine and 1 mg/mL pNPP and incubated at RT for 15 min before the reaction was stopped by the addition of 0.25 volumes of 1 M NaOH. Absorbance was measured at 405 nm on a Versamax microplate reader (Molecular Devices) and normalized to the mean of >5 solvent controls.
To obtain reliable estimates, replicate measurements of a minimum of 2 experiments were normalized to the maximal SEAP activity of a compound in a given experiment and pooled before fitting a non-linear function to the data.

[1] = system: TNFα and IFNα in peripheral plasma; assay: Cytokine AUC in peripheral plasma after activity-adjusted s.c. doses (Figure 5C, Table 2 bottom); assay type: in vivo, C57BL/6 mice; details: for IFNα AUC / TNFα AUC: 8 h period; for IFNα AUC / TNFα AUC / INFα AUC / TNFα AUC: doses adjusted to activity (bottom section); for dose ratio, times the molar dose of RSQ leading to comparable amounts of IFNα / dose ratio, times the molar dose of RSQ necessary to induce similar levels of TNFα: comparison of AUC, s.c.
Protocol: Cytokine concentrations in samples were quantified either by ELISA (hTNFα, R&D Systems; hIFNα, Mabtech) or cytometric bead arrays (CBA, LegendPlex mouse anti-virus response panel, BioLegend) according to the manufacturer’s instructions. CBAs were acquired on a ZE5 Cell Analyzer (Bio-Rad) and analyzed using the LegendPlex Software Suite (Qognit/BioLegend). Absorbance of ELISA-samples was quantified using a Versamax microplate reader (Molecular Devices).
Formulation. Test compounds were prepared for application in either 1% Tween 80, 9% PEG400 in ultrapure water (Biowest) (i.v., i.p., p.o. application) or 5 mM citric acid in 0.9% saline (Braun) (subcutaneous application). If compounds were administered subcutaneously, injections were carried out into the neck crease.
Collection of Samples. Mice were bled from the tail vein at various timepoints. Heparin (Sigma) or K2-EDTA (Sigma) was added to blood samples to a final […] concentration of 10-15 Unit or 5 mM. Plasma was generated by centrifugation at 6800xg for 8 min at 4°C and stored at -80°C until analyzed by ELISA or CBA. Animals were sacrificed after the indicated time points by CO2 inhalation. Heart blood and organs for compound quantification by HPLC-MS/MS were collected post mortem and stored at –20°C until extracted as described above.
Compound concentration in (A) peripheral blood collected via tail bleeding before, 15, 30 60, 120, 240, 360 and 480 min after s.c. compound application and (B) organs collected after 8 h was assessed via HPLC-MS/MS. (A, B) Data are presented as mean ± SD. (C) Levels of TNFα and IFNα as well as (D) IL6, CXCL1, CCL2, IFNβ, IFNγ and IL10 in tail plasma over time were determined via cytometric bead array. Area under the curve (AUC) of each cytokine was plotted against compound concentration. Data are represented as mean ± 95% confidence interval.

SMILES | TLR8 activity rel. to assay max (human TLR8) | SEAP secretion from HEK-Blue hTLR-8 (human TLR8) | IFNα AUC ([1]; 1 µmol/kg s.c.) | TNFα AUC ([1]; 1 µmol/kg s.c.) | INFα AUC / TNFα AUC ([1]; 1 µmol/kg s.c.) | IFNα AUC ([1]; 3 µmol/kg s.c.) | TNFα AUC ([1]; 3 µmol/kg s.c.) | INFα AUC / TNFα AUC ([1]; 3 µmol/kg s.c.) | IFNα AUC ([1]; 6 µmol/kg s.c.) | TNFα AUC ([1]; 6 µmol/kg s.c.) | INFα AUC / TNFα AUC ([1]; 6 µmol/kg s.c.) | IFNα AUC ([1]; 12 µmol/kg s.c.) | TNFα AUC ([1]; 12 µmol/kg s.c.) | INFα AUC / TNFα AUC ([1]; 12 µmol/kg s.c.) | dose ratio, times the molar dose of RSQ leading to comparable amounts of IFNα [1] | dose ratio, times the molar dose of RSQ necessary to induce similar levels of TNFα [1] | IFNα AUC ([1]; 0.1 µmol/kg s.c.) | TNFα AUC ([1]; 0.1 µmol/kg s.c.) | IFNα AUC ([1]; 0.3 µmol/kg s.c.) | TNFα AUC ([1]; 0.3 µmol/kg s.c.)
CCCCc1nc2c(N)nc3ccccc3c2n1CCC1CCN(C(=O)CN(C)CC(=O)N(C)C2CC(C)OC(OC3C(C)C(OC4CC(C)(OC)C(O)C(C)O4)C(C)C(=O)OC(CC)C(C)(O)C(O)C(C)N(C)CC(C)CC3(C)O)C2O)CC1 (stereo not shown) [A1-mac] | 5% ± 3% | close to baseline | 33000 pg·min/mL | 7200 pg·min/mL | 5 | 300000 pg·min/mL | 14000 pg·min/mL | 22 | 1.6e+06 pg·min/mL | 38000 pg·min/mL | 42 | 1.9e+06 pg·min/mL | 65000 pg·min/mL | 30 | 6-10 times | 30-40 times | – | – | – | –
CCCCc1nc2c(N)nc3ccccc3c2n1CCC1CCNCC1 [A1] | 11% ± 8% | close to baseline | 70000 pg·min/mL | 9700 pg·min/mL | 7 | 490000 pg·min/mL | 11000 pg·min/mL | 44 | 1.1e+06 pg·min/mL | 20000 pg·min/mL | 58 | 1.9e+06 pg·min/mL | 44000 pg·min/mL | 44 | 6-10 times | 30-40 times | – | – | – | –
CCCCc1nc2c(N)nc3ccccc3c2n1CC1CCN(C(=O)CN(C)CC(=O)N(C)[C@H]2C[C@@H](C)O[C@@H](O[C@@H]3[C@@H](C)[C@H](O[C@H]4C[C@@](C)(OC)[C@@H](O)[C@H](C)O4)[C@@H](C)C(=O)O[C@H](CC)[C@@](C)(O)[C@H](O)[C@@H](C)N(C)C[C@H](C)C[C@@]3(C)O)[C@@H]2O)CC1 [A2-mac] | 4% ± 1% | close to baseline | – | – | – | – | – | – | – | – | – | – | – | – | – | – | – | – | – | –
CCOCc1nc2c(N)nc3ccccc3c2n1CC(C)(C)O [RSQ, Resiquimod, reference compound] | 96% ± 4% | – | 1.1e+06 pg·min/mL | 120000 pg·min/mL | – | 970000 pg·min/mL | 150000 pg·min/mL | – | – | – | – | – | – | – | – | – | 110000 pg·min/mL | 17000 pg·min/mL | 560000 pg·min/mL | 50000 pg·min/mL
